Reference: patent US20200375958A1, “MEMBRANE ACTIVE MOLECULES” (priority 2017, published 2020)
“And” between values parts separate entries of the source, which are not always exact repeats. Equal entries are not always repeated. Where two headings read alike, the source gives them in different places.

Tests used:
Tadpoles = assay: Tadpole anesthesia test (movement suppressed on contact with rod); type: in vivo
Description: Tadpoles were placed in a petri dish containing aquarium water. Four to eight tadpoles were placed in each petri dish. The aquarium water contained the specified test compound at the listed concentration. When the tadpoles stopped moving, a plastic rod was used to elicit motion once again by contact between the rod and tadpole. […] From this and the number of subjects, the percent of tadpoles in which movement was suppressed were calculated.
After 1 to 30 minutes, they were again contacted with a rod to ensure the anesthetic effect had worn off.
In some examples, subanesthetic concentrations of ethanol were added into the aquarium water. Tadpoles in which movement was prevented with exposure to a test compound and ethanol but not with exposure to a test compound alone were classified as partial anesthetics.

mouse = conditions: for Effect on the animals: 62.5 mM solution in intralipid; for Effect on the animals / Lethality to the animals: intravenous
Description: Butyric acid was dissolved in water to form an 8 M solution. 0.5 mL of the 8 M solution of butyric acid was injected subcutaneously (at the back of the neck) into the mouse.
3-hydroxybutyric acid was dissolved in water to form 1 M, 1.5 M, and 2 M solutions. 0.2 mL of a 1.5 M solution of 3-hydroxybutyric acid was injected into a tail vein of a CD-1 mouse. […] This was repeated for at least 2 more times on subsequent days.
Ethylmalonic acid was dissolved in water to form 2 M, 3 M, and 4 M solutions. 0.2 mL of a 3 M solution of ethylmalonic acid was injected into a tail vein of a mouse. […] This was repeated for at least 2 more times on subsequent days.
Ethylmalonic acid was dissolved in water to form a 4 M solution. 0.5 mL of the 4 M solution of ethylmalonic acid was injected subcutaneously into the mouse.

CF-1 mice = assay: Anticonvulsant test in mice: metrazol (pentylenetetrazol) tail vein infusion, time to twitch and seizure; type: in vivo, mouse
Description: CF-1 mice were used in this study. Number 20 PE tubing to cannulate a mouse tail vein was used. An infusion pump was used to deliver a solution at a rate of 0.34 mL/min. A hemostat was used to prevent backflow in the PE tubing before the experiment stated. To begin the experiment, the hemostat that was clamped to the PE 20 tubing was removed, the infusion of the solution was started into the tail IV of the mouse, and the timer was started.
The study reflects the time in seconds from the start of the infusion to the time of twitch and onset of seizure, or 90 seconds, whichever is sooner. When the seizure occurs, the infusion is turned off.
As a control, metrazol (pentylenetetrazol) in a 0.5% solution (5 mg/mL) in water was prepared. Pentylenetetrazol is used as a control to study seizure phenomena in and to identify compounds that may control seizure susceptibility. Solutions of 8 M butyric acid and 1.5 M 3-hydroxybutyric acid were made.
The time to twitch and time to seizure of the mouse in seconds is recorded in Tables 3-5, below.

[1] = read-out: Movement suppressed (%)
[2] = average of 9 mice, metrazol alone
[3] = individual mice, metrazol 0.5% solution infused 0.34 mL/min tail vein
[4] = average of 8 mice, 1.5 M 3-hydroxybutyric acid solution plus metrazol
[5] = individual mice, 1.5 M 3-hydroxybutyric acid solution plus metrazol
[6] = Concentration 62.5 mM in aquarium water

O=C(O)CCCC(=O)O [Glutaric acid]
responders at 7800 µM (Tadpoles; [1]): 0%
responders at 31000 µM (Tadpoles; [1]): 0%
responders at 125000 µM (Tadpoles; [1]): 0%

C[C@@H](O)CC(=O)O [R-3-hydroxybutyric acid, (R)-3 -Hydroxybutanoic acid]
responders at 100000 µM (Tadpoles; [1]): 0%
responders at 200000 µM (Tadpoles; [1]): 0%
responders at 250000 µM (Tadpoles; [1]): 0%
responders at 300000 µM (Tadpoles; [1]): 0%
responders at 350000 µM (Tadpoles; [1]): 0%
responders at 400000 µM (Tadpoles; [1]): 46%
responders at 500000 µM (Tadpoles; [1]): 100%

O=C(O)Cc1c[nH]c2ccccc12 [Indole-3-acetic acid, 2-(1H-indol-3-yl)acetic acid]
responders at 12500 µM (Tadpoles; [1]): 0%

CCCC(=O)OCC [ethyl butyrate]
Effect on the animals (mouse): lethargic and those loss coordination
Lethality to the animals (mouse; 250 mM solution in intralipid): lethal
Lethality to the animals (mouse; 1M solution in intralipid): lethal

CC(=O)CCCC(=O)O [4-Acetylbutyric acid, 5-Oxohexanoic acid]
responders at 25000 µM (Tadpoles; [1]): 0%

Fumaric acid
Movement suppressed (%) (Tadpoles; Concentration 25 mM in aquarium water): 40%
Movement suppressed (%) (Tadpoles; Concentration (mM) 25 + 150 EtOH): 80%

O=C(O)CCCCC(=O)O [Adipic acid, Hexanedioic acid]
responders at 50000 µM (Tadpoles; [1]): 0%

C[C@H](O)CC(=O)O [S-3-hydroxybutyric acid, (S)-3-Hydroxybutanoic acid]
responders at 100000 µM (Tadpoles; [1]): 0%
responders at 200000 µM (Tadpoles; [1]): 0%
responders at 250000 µM (Tadpoles; [1]): 14%
responders at 300000 µM (Tadpoles; [1]): 17%
responders at 350000 µM (Tadpoles; [1]): 50%
responders at 400000 µM (Tadpoles; [1]): 92%
responders at 500000 µM (Tadpoles; [1]): 100%

CC[C@H](C)[C@H](N)C(=O)O [Isoleucine]
responders at 25000 µM (Tadpoles; [1]): 0%

O=C(O)CCCCCCC(=O)O [Suberic acid, Octanedioic acid]
responders at 10000 µM (Tadpoles; [1]): 50%

C1CCc2nnnn2CC1 [Metrazol, pentylenetetrazol, reference compound]
Metrazol alone Time to Seizures (seconds), Avg. (CF-1 mice; [2]): 45.7 s
Metrazol alone Time to Twitch (seconds), Avg. (CF-1 mice; [2]): 37.3 s
Metrazol alone Time to Seizures (CF-1 mice; [3]): 43 seconds (2×) and 42 seconds (2×) and 59 seconds and 45 seconds and 39 seconds and 49 seconds (2×)
Metrazol alone Time to Twitch (CF-1 mice; [3]): 33 seconds and 36 seconds (2×) and 37 seconds and 52 seconds and 34 seconds (2×) and 31 seconds and 43 seconds

CC(C)[C@H](N)C(=O)O [L-valine, Valine]
responders at 7800 µM (Tadpoles; [1]): 0%
responders at 31000 µM (Tadpoles; [1]): 0%
responders at 125000 µM (Tadpoles; [1]): 0%
responders at 500000 µM (Tadpoles; [1]): 40%

CC(C)C(C(=O)O)C(=O)O [Isopropyl malonic acid, 2-isopropylmalonic acid]
responders at 1600 µM (Tadpoles; [1]): 0%
responders at 6250 µM (Tadpoles; [1]): 0%
responders at 25000 µM (Tadpoles; [1]): 50%

O=C(O)c1ccc2ccccc2n1 [Quinaldic acid, Quinoline-2-carboxylic acid]
responders at 25000 µM (Tadpoles; [1]): 16%

O=C(O)C(=O)Cc1ccccc1 [Phenylpyruvic acid, 2-Oxo-3-phenylpropanoic acid]
responders at 62500 µM (Tadpoles; [1]): 100%
responders at 125000 µM (Tadpoles; [1]): 100%

CCC(C)CC(=O)O (stereo not shown) [3-Methylvaleric acid, 3-Methylpentanoic acid]
responders at 20000 µM (Tadpoles; [1]): 25%

CCOC(=O)[C@@H](O)c1ccccc1 [ethyl (S)-(+)-mandelate]
Effect on the animals (mouse): lethargic and those loss coordination
Lethality to the animals (mouse; 250 mM solution in intralipid): lethal
Lethality to the animals (mouse; 1M solution in intralipid): lethal

CCC(C)C(=O)C(=O)O (stereo not shown) [3-Methyl-2-oxovaleric acid, 3-Methyl-2-oxopentanoic acid]
responders at 250000 µM (Tadpoles; [1]): 33%

CC(O)CC(=O)O (stereo not shown) [3-hydroxybutyric acid]
Anesthetic effect on the mouse (mouse; 0.2 mL of 1.5 M solution in water, tail vein, CD-1 mouse): became unconscious or anesthetic
Anesthetic effect on the mouse (mouse; 1 M solution in water, tail vein, CD-1 mouse): did not have any observable effect
Lethality to the mouse (mouse; 2 M solution in water, tail vein, CD-1 mouse): lethal
3-Hydroxybutyric Acid and Metrazol Time to Seizures (seconds), Avg. (CF-1 mice; [4]): 56.9 s
3-Hydroxybutyric Acid and Metrazol Time to Twitch (seconds), Avg. (CF-1 mice; [4]): 47.5 s
3-Hydroxybutyric Acid and Metrazol Time to Seizures (CF-1 mice; [5]): 61 seconds and 74 seconds and 53 seconds (3×) and 48 seconds (2×) and 65 seconds
3-Hydroxybutyric Acid and Metrazol Time to Twitch (CF-1 mice; [5]): 56 s and 54 s and 49 s and 47 s and 38 s and 50 s and 45 s and 41 s

Glycine
Movement suppressed (%) (Tadpoles; Concentration (mM) 250 + 150 EtOH): 100%

Cc1cccc(C(=O)NCC(=O)O)c1 [3-Methylhippuric acid, (3-Methylbenzoyl)glycine]
responders at 3125 µM (Tadpoles; [1]): 0%

CC(C)(C)CC(=O)O [3,3-Dimethylbutyric acid, 3,3-Dimethylbutanoicacid]
responders at 25000 µM (Tadpoles; [1]): 100%

CC(C)(O)CC(=O)O [3-Hydroxy-3-methylbutyric acid, 3-Hydroxy-3-methylbutanoic acid]
responders at 1600 µM (Tadpoles; [1]): 0%
responders at 6250 µM (Tadpoles; [1]): 0%
responders at 25000 µM (Tadpoles; [1]): 0%
responders at 100000 µM (Tadpoles; [1]): 100%

O=C(O)C(O)c1ccccc1 (stereo not shown) [Mandelic acid, 2-Hydroxy-2-phenylacetic acid]
responders at 250000 µM (Tadpoles; [1]): 0%
responders at 300000 µM (Tadpoles; [1]): 100%
responders at 500000 µM (Tadpoles; [1]): 100%

Cc1ccc(C(=O)NCC(=O)O)cc1 [4-Methylhippuric acid, (4-Methylbenzoyl)glycine]
responders at 50000 µM (Tadpoles; [1]): 0%
responders at 150000 µM (Tadpoles; [1]): 0%

CCC(C(=O)O)C(=O)O [Ethyl Malonic Acid, 2-Ethylmalonic acid]
responders at 16000 µM (Tadpoles; [1]): 0%
responders at 62500 µM (Tadpoles; [1]): 0%
responders at 125000 µM (Tadpoles; [1]): 100%
responders at 250000 µM (Tadpoles; [1]): 100%
Anesthetic effect on the mouse (mouse; 0.2 mL of 3 M solution in water, tail vein): became unconscious
Anesthetic effect on the mouse (mouse; 0.5 mL of 4 M solution in water, subcutaneous): became sedated, anesthetized, or lose consciousness
Anesthetic effect on the mouse (mouse; 2 M solution in water, tail vein): did not have any observable effect
Lethality to the mouse (mouse; 4 M solution in water, tail vein): lethal

CC(C)(C(=O)O)C(=O)O [Dimethylmalonic acid]
responders at 125000 µM (Tadpoles; [1]): 60%
responders at 250000 µM (Tadpoles; [1]): 60%

O=C(O)c1cc(O)c2ccccc2n1 [Kynurenic acid, 4-hydroxyquinoline-2-carboxylic acid]
responders at 12500 µM (Tadpoles; [1]): 0%

CCOC(=O)C(CC)C(=O)OCC [diethyl ethyl malonate, Diethyl ethyl malonate]
Effect on the animals (mouse): lethargic and those loss coordination

O=C(O)[C@@H]1CCCN1 [Proline]
responders at 103000 µM (Tadpoles; [1]): 0%

N=C(N)NCCC[C@H](N)C(=O)O [Arginine]
responders at 46500 µM (Tadpoles; [1]): 0%

Guanidine
Movement suppressed (%) (Tadpoles; [6]): 0%
Movement suppressed (%) (Tadpoles; Concentration (mM) 62.5 + 150 EtOH): 100%

O=C(NC(O)C(=O)O)c1ccccc1 (stereo not drawn) [Alpha-Hydroxyhippuric acid, 2-Benzamido-2-hydroxyacetic acid]
responders at 5000 µM (Tadpoles; [1]): 33%
responders at 10000 µM (Tadpoles; [1]): 100%

N[C@@H](Cc1c[nH]c2ccccc12)C(=O)O [Tryptophan]
responders at 12500 µM (Tadpoles; [1]): 0%

Succinic acid
Movement suppressed (%) (Tadpoles; [6]): 0%
Movement suppressed (%) (Tadpoles; Concentration (mM) 62.5 + 200 EtOH): 66%

CCOC(=O)C(CC)(C(=O)OCC)c1ccccc1 [diethyl ethylphenylmalonate]
Effect on the animals (mouse): lethargic and those loss coordination
Lethality to the animals (mouse; 250 mM solution in intralipid): lethal
Lethality to the animals (mouse; 1M solution in intralipid): lethal

CCO [Ethanol control, Ethanol, reference compound]
responders at 100000 µM (Tadpoles; [1]): 0%
responders at 150000 µM (Tadpoles; [1]): 0%
responders at 200000 µM (Tadpoles; [1]): 0%
responders at 250000 µM (Tadpoles; [1]): 33%

NC(=O)C[C@H](N)C(=O)O [L-Asparagine, Asparagine]
responders at 100000 µM (Tadpoles; [1]): 0%

NC(=O)CC[C@H](N)C(=O)O [Glutamine]
responders at 25000 µM (Tadpoles; [1]): 0%
responders at 50000 µM (Tadpoles; [1]): 100%
responders at 100000 µM (Tadpoles; [1]): 100%

N[C@@H](CO)C(=O)O [L-Serine, Serine]
responders at 114000 µM (Tadpoles; [1]): 0%

Tartaric acid [L-Tartaric acid]
Movement suppressed (%) (Tadpoles; Concentration 50 mM in aquarium water): 0%
Movement suppressed (%) (Tadpoles; Concentration (mM) 50 + 150 EtOH): 100%

CCC(O)C(=O)O (stereo not shown) [2-Hydroxybutyric acid, 2-hydroxybutyric acid]
responders at 125000 µM (Tadpoles; [1]): 0%

ethyl isovaleric acid
Effect on the animals (mouse): lethargic and those loss coordination

CC(C)CCC(=O)O [4-Methylvaleric acid]
responders at 20000 µM (Tadpoles; [1]): 0%
